Experimental findings from ChEMBL document CHEMBL1132399, “Synthesis of novel orthoalkylaminophenol derivatives as potent neuroprotective agents in vitro” (Bioorg Med Chem Lett, 1999) are described below.

The structures appear in SMILES notation.

In data set [1] the test system is HT-22. The data set can be described thus: Maximum tolerated concentration required for neurotoxicity on murine HT-22 hippocampal cell culture, monitored by MTT reduction assay tested in vitro. It counts as functional, Mus musculus. Background: Formazan colour is commonly taken as a measure of viable cells.
Data set [2] relates to HT-22. The data set can be described thus: Maximum tolerated concentration required for neurotoxicity on murine HT-22 hippocampal cell culture, monitored by LDH assay tested in vitro. It counts as functional, Mus musculus.
The test system of data set [3] is HT-22. The data set can be described thus: Tested in vitro for neurotoxicity on murine HT-22 hippocampal cell culture, monitored by MTT reduction assay. The conditions noted are these: Mus musculus, read-out: TC50 (the source's name). In kind it is functional.
In data set [4] the test system is HT-22. The data set can be described thus: Tested in vitro for neurotoxicity on murine HT-22 hippocampal cell culture, monitored by LDH assay. In kind it is functional. The conditions noted are these: Mus musculus, read-out: TC50 (the source's name).
The nature of data set [5]: Safety index (MTC/PC50). In kind it is toxicity. The conditions noted are these: read-out: Safety index.
Data set [6] relates to HT-22. The data set can be described thus: Tested in vitro for its neuroprotective activity against L-homocysteic acid(L-HCA) cytotoxicity, in murine HT-22 hippocampal cell culture, monitored by LDH assay. It counts as functional, Mus musculus.
The subject of data set [7] is HT-22. The data set can be described thus: Compound was tested in vitro for its neuroprotective activity against L-homocysteic acid(L-HCA) cytotoxicity in murine HT-22 hippocampal cell culture monitored by MTT reduction assay. It counts as functional, Mus musculus.
The subject of data set [8] is HT-22. The data set can be described thus: Tested in vitro for its neuroprotective activity against L-homocysteic acid(L-HCA) cytotoxicity, in murine HT-22 hippocampal cell culture, monitored by MTT reduction assay. In kind it is functional, Mus musculus.

For the compound `Cc1c(C)c2c(c(C)c1O)CC[C@@](C)(CCC[C@H](C)CCC[C@H](C)CCCC(C)C)O2` [ALPHA-TOCOPHEROL], the MTC with HT-22 [1] and in the data set on HT-22 [2] was >200 µM throughout. Also, the CC50 in the data set on HT-22 [3] and in the data set on HT-22 [4] was > 200 µM throughout. Moreover, the selectivity ratio in data set [5] is > 250. Also, the PC50 with HT-22 [6] is 1.7 µM; in the data set on HT-22 [7], 0.8 µM.
As for `O=C(c1cc(O)c(O)c(O)c1)c1ccc(O)c(O)c1O` [EXIFONE], the MTC in the data set on HT-22 [1] worked out at 10 µM; in the data set on HT-22 [2], 50 µM. Moreover, the figures for the CC50 in the data set with HT-22 [3] and in the data set with HT-22 [4] were 34 µM and 91 µM, respectively. Further, the PC50 in the data set with HT-22 [8] and with HT-22 [6] was >10 µM throughout.
